The results in this text go back to patent publication US20170058282A1 (priority 2015, published 2017).

The target of assay [1] is T1, Lactococcus lactis heme-responsive transcription factor HrtR, SEQ ID NO: 1 (in E. coli MG1655, HrtR+ChuA+PhrtAB-luxCDABE) (Lactococcus cremoris, UniProt A2RIY0).
T1 sequence (A2RIY0 1-189): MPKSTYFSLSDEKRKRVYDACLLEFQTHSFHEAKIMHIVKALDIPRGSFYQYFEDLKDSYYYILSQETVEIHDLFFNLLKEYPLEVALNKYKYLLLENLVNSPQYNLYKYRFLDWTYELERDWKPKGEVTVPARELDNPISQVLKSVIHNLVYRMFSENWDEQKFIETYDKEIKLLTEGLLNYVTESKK
The assay can be described thus: Hemin response of E. coli MG1655 with HrtR+ChuA+PhrtAB-luxCDABE (luminescence). The format is cell-based.

In assay [2] the target is T2, Lactococcus lactis heme-responsive transcription factor HrtR, SEQ ID NO: 1 (in E. coli MG1655, no ChuA) (Lactococcus cremoris, UniProt A2RIY0).
T2 construct: PhrtAB- or PL(HrtO)-luxCDABE reporter
T2 sequence (A2RIY0 1-189): T1 sequence (A2RIY0 1-189)
As to the kind of experiment: Hemin response of E. coli MG1655 with HrtR and PhrtAB- or PL(HrtO)-luxCDABE without ChuA (luminescence). It is filed as cell-based.

Take `C=CC1=C(C)c2cc3[nH]c(cc4nc(cc5[nH]c(cc1n2)c(C)c5CCC(=O)O)C(CCC(=O)O)=C4C)c(C)c3C=C.[Fe+2]` [heme]: the response concentration range result in assay [1] (with ChuA) is given as “sub-micromolar range”. Take `C=CC1=C(C)c2cc3[nH]c(cc4nc(cc5[nH]c(cc1n2)c(C)c5CCC(=O)O)C(CCC(=O)O)=C4C)c(C)c3C=C.[Fe+3]` [hemin]: in assay [1] (depending on the concentration of hemin used), the “time to detectable differences in luminescence” value lay in the range of 30 to 60 min. In assay [2], the “response of gene circuit to extracellular hemin” value is “insensitive”.
